Data published in US6265418A, “N-acylamino acid amide compounds and intermediates for preparation thereof” (Ube Industries, Ltd., priority 1997, dated 2001).
pIC50: −log10 of the molar value. Like-named read-outs stand apart in the source and are kept apart here.

Tests used:
[1] = tested on: platelet aggregation induced by ADP; assay: ADP (adenosine diphosphate) induced-platelet aggregation inhibiting activity (in vitro, platelet-rich plasma); type: cell-based, human (healthy volunteer); conditions: ADP final concentration 10 μM, 37° C., pre-incubation 5 minutes, prime (') = converted into carboxylic acid compound before test, read-out: in vitro Platelet aggregation inhibition activity IC50
Protocol: ADP (adenosine diphosphate) induced-platelet aggregation inhibiting activity
(1) Preparation Method of Platelet-rich Plasma
By using 0.1 volume of 3.8% sodium citrate as an anticoagulant, citrate-added blood collected from an elbow vein of a healthy volunteer was centrifuged at 500×g (=1600 rpm) for 3 minutes and the supernatant was fractionated as platelet-rich plasma (PRP). The under layer was further centrifuged at 1800×g (3200 rpm) for 15 minutes and the supernatant was fractionated as platelet-poor blood plasma (PPP) and used for ADP aggregation (coagulation) measurement.
(2) Measurement Method of ADP-induced Platelet Aggregation
PRP obtained as mentioned above was diluted by the platelet-poor plasma (PPP) to adjust the number of platelet to 30 to 40×10^4 /μL, and platelet aggregation induced by ADP was measured by using an aggrigometer (available from NBS Co., Hematracer Va.). First, 185 μL of PRP was placed in a glass cuvette for exclusive use, 5 μL of a test compound solution or a solvent (control) for preparing test compound was added thereto, and the mixture was pre-incubated while stirring (1000 ppm) at 37° C. for 5 minutes. Thereafter, 10 μL (final concentration 10 μM) of an ADP solution was added thereto to induce platelet aggregation. Change in transmittance caused by platelet aggregation was recorded for 3 minutes after addition of ADP.
Transmittances of PRP and PPP were made 0 and 100%, respectively, and the maximum transmittance after adding ADP was made the maximum aggregation ratio. The maximum aggregation ratio when the test compound was added divided by that ratio when the solvent for preparation was added was shown in terms of a percentage, and a 50% inhibiting concentration (IC50) was calculated.
Incidentally, when the test compound has a protected carboxyl group, the sample was applied to the test after carrying out the following deprotection treatment. First, the test compound was dissolved in ethanol, and hydrolyzed (at room temperature for 2 hours) by adding an equal volume of a 0.1 N aqueous sodium hydroxide solution. Then, the solution was neutralized by adding a 0.1 N aqueous hydrochloric acid solution, and the resulting solution was diluted by using a preparation solvent (composition: ethanol/0.1 N aqueous sodium hydroxide solution/0.1 N aqueous hydrochloric acid solution=1/1/1) to a predetermined concentration to make a test compound solution.

[2] = tested on: platelet aggregation induced by ADP; assay: Ex vivo ADP induced-platelet aggregation inhibiting activity after oral administration to monkeys; type: in vivo; conditions: cynomolgus monkeys, ADP 20 μM
From the text: (§1) Ex Vivo ADP Induced-platelet Aggregation Inhibiting Activity
As a test animal, 2 to 3 monkeys (cynomolgus monkeys) born in China were used as one group.
(§2) Test compounds were suspended in a dimethylsulfoxide: 0.5% aqueous sodium carboxymethylcellulose solution (=1:99) and orally administered. To the animals for control group, a dimethylsulfoxide: 0.5% aqueous sodium carboxymethylcellulose solution (=1:99) containing no test compound was orally administered.
With regard to the respective groups, 5 ml of blood was each collected from femoral vein at the predetermined times before and after administration of the test compound by using a syringe to which 3.8% of sodium citrate was added. The resulting citrate-added blood was centrifuged at 80×g (=700 rpm) for 10 minutes, and then, the supernatant was fractionated as platelet rich plasma (PRP). The under layer was further centrifuged at 2000×g (3200 rpm) for 10 minutes and the supernatant was fractionated as platelet-poor plasma (PPP) and used for ADP aggregation (coagulation) measurement.
(§3) PRP was diluted by PPP to adjust the number of platelet to 30 to 40×10^4 /μL, and platelet aggregation induced by ADP was measured by using a nephelometric platelet aggregation meter (available from NBS Co., Hematracer 801). First, 190 μL of PRP was placed in a glass cuvette for exclusive use and pre-incubated while stirring (1000 ppm) at 37° C. for 5 minutes. Thereafter, 10 μL (final concentration 20 μM) of an ADP solution was added thereto to induce platelet aggregation. Change in transmittance caused by platelet aggregation was recorded for 3 minutes after addition of ADP.
(§4) Transmittances of PRP and PPP were made 0 and 100%, respectively, and the maximum transmittance after adding ADP was made the maximum aggregation ratio.
(§5) The platelet aggregation inhibiting ratio was shown in terms of a percentage of the maximum aggregation ratio when the test compound was added divided by the maximum aggregation ratio when the solvent for preparation was added.

[3] = tested on: platelet aggregation induced by ADP and epinephrine; assay: Ex vivo ADP induced-platelet aggregation inhibiting activity after oral administration to dogs; type: in vivo; conditions: beagle dogs, ADP 10 μM + epinephrine 1 μM
Protocol: as §1
As a test animal, 2 to 3 beagle dogs were used as one group.
as §2
With regard to the respective groups, 5 ml of blood was each collected from cervical vein at the predetermined times before and after administration of the test compound by using a syringe to which 3.8% of sodium citrate was added. The resulting citrate-added blood was centrifuged at 80×g (=700 rpm) for 10 minutes, and then, the supernatant was fractionated as platelet-rich plasma (PRP). The under layer was further centrifuged at 2000×g (3200 rpm) for 10 minutes and the supernatant was fractionated as platelet-poor plasma (PPP) and used for ADP aggregation (coagulation) measurement.
as §3, with “an aggrigometer” for “a nephelometric platelet aggregation meter”, “μL” for “μL (final concentration 20 μM)”, “solution (final concentration 10 μM) and an epinephrine solution (final concentration 1 μM)” for “solution”
as §4, §5

[4] = tested on: platelet aggregation; conditions: reported in Thrombosys, Res., 56, 6, 687 (1989); cited from earlier work
[5] = tested on: fibrinogen receptor; conditions: reported in Thrombosys, Res., 56, 6, 687 (1989); cited from earlier work

## N=C(N)c1ccc(C(=O)N[C@@H](Cc2ccc([N+](=O)[O-])cc2)C(=O)N2CCc3sc(CC(=O)O)cc3C2)cc1 [Example I-5, 5-[N-(4-amidinobenzoyl)-L-4-nitrophenylalanyl]-4,5,6,7-tetrahydrothieno[3,2-c]pyridin-2-acetic acid.trifluoroacetate]
[1]; Homo sapiens, Platelet
  pIC50: 7.52

## CCOC(=O)Cn1cc2c(n1)CCN(C(=O)[C@H](Cc1ccc([N+](=O)[O-])cc1)NC(=O)c1ccc(C(=N)N)cc1)C2 [Example I-76, Ethyl 5-[N-(4-amidinobenzoyl)-L-4-nitrophenylalanyl]-4,5,6,7-tetrahydropyrazolo[4,3-c]pyridin-2-acetate.trifluoroacetate]
[2]
  platelet aggregation inhibiting activities even in oral administration: excellent platelet aggregation inhibiting activities
  sustained activity: excellent sustained activity

## CCOC(=O)Cn1cc2c(n1)CCN(C(=O)[C@H](Cc1ccc([N+](=O)[O-])cc1)NC(=O)c1ccc(C(=N)NC(=O)OCC)cc1)C2 [Example I-77, Ethyl 5-[N-[4-(N-ethoxycarbonylamidino)benzoyl]-L-4-nitrophenylalanyl]-4,5,6,7-tetrahydropyrazolo[4,3-c]pyridin-2-acetate]
[2]
  platelet aggregation inhibiting activities even in oral administration: excellent platelet aggregation inhibiting activities
  sustained activity: excellent sustained activity
[3]; 1 mg/kg p.o., 1 hr
  ex vivo Platelet aggregation inhibiting ratio: 60%
[3]; 1 mg/kg p.o., 4 hr
  ex vivo Platelet aggregation inhibiting ratio: 85%
[3]; 1 mg/kg p.o., 8 hr
  ex vivo Platelet aggregation inhibiting ratio: 63%

## N=C(N)c1ccc(C(=O)N[C@@H](Cc2ccc([N+](=O)[O-])cc2)C(=O)N2CCc3nn(CC(=O)O)cc3C2)cc1 [Example I-79, 5-[N-(4-amidinobenzoyl)-L-4-nitrophenylalanyl]-4,5,6,7-tetrahydropyrazolo[4,3-c]pyridin-2-acetic acid.trifluoroacetate]
[1]; Homo sapiens, Platelet
  pIC50: 7.70

## CCOC(=O)Cn1cc2c(n1)CCN(C(=O)[C@H](Cc1ccc([N+](=O)[O-])cc1)NC(=O)c1ccc(C(=N)NO)cc1)C2 [Example I-85, Ethyl 5-[N-[4-(N-hydroxyamidino)benzoyl]-L-4-nitrophenylalanyl]-4,5,6,7-tetrahydropyrazolo[4,3-c]pyridin-2-acetate]
[3]; 0.3 mg/kg p.o., 1 hr
  ex vivo Platelet aggregation inhibiting ratio: 61%
[3]; 0.3 mg/kg p.o., 4 hr
  ex vivo Platelet aggregation inhibiting ratio: 94%
[3]; 0.3 mg/kg p.o., 8 hr
  ex vivo Platelet aggregation inhibiting ratio: 41%

## N=C(N)c1ccc(C(=O)N[C@@H](Cc2ccc([N+](=O)[O-])cc2)C(=O)N2C3CCC2c2cn(CC(=O)O)nc2C3)cc1 (stereo partly drawn) [Example I-91, 5-[N-(4-amidinobenzoyl)-L-4-nitrophenylalanyl]-4,6-ethano-4,5,6,7-tetrahydropyrazolo[4,3-c]pyridin-2-acetic acid]
[1]; Homo sapiens, Platelet
  pIC50: 7.30

## CCOC(=O)Cn1cc2c(n1)CCN(C(=O)[C@H](Cc1ccc([N+](=O)[O-])cc1)NC(=O)c1ccc(C(=N)NC(=O)Oc3ccccc3)cc1)C2 [Example I-115, Ethyl 5-[N-[4-(N-phenoxycarbonylamidino)benzoyl]-L-4-nitrophenylalanyl)-4,5,6,7-tetrahydropyrazolo[4,3-c]pyridin-2-acetate]
[3]; 0.3 mg/kg p.o., 1 hr
  ex vivo Platelet aggregation inhibiting ratio: 35%
[3]; 0.3 mg/kg p.o., 4 hr
  ex vivo Platelet aggregation inhibiting ratio: 43%
[3]; 0.3 mg/kg p.o., 8 hr
  ex vivo Platelet aggregation inhibiting ratio: 22%

## C[C@H](NC(=O)c1ccc(C(=N)N)cc1)C(=O)N1CCc2nn(CC(=O)O)cc2C1 [Example I-126, 5-[N-(4-amidinobenzoyl)-L-alanyl]-4,5,6,7-tetrahydropyrazolo[4,3-c]pyridin-2-acetic acid.trifluoroacetate]
[1]; Homo sapiens, Platelet
  pIC50: 7.10

## N=C(N)c1ccc(C(=O)N[C@@H](Cc2ccccc2)C(=O)N2CCc3nn(CC(=O)O)cc3C2)cc1 [Example I-128, 5-[N-(4-amidinobenzoyl)-L-phenylalanyl]-4,5,6,7-tetrahydropyrazolo[4,3-c]pyridin-2-acetic acid.trifluoroacetate]
[1]; Homo sapiens, Platelet
  pIC50: 7.30

## CN(C(=O)c1ccc(C(=N)N)cc1)[C@@H](Cc1ccc([N+](=O)[O-])cc1)C(=O)N1CCc2nn(CC(=O)O)cc2C1 [Example I-136, 5-[N-(4-amidinobenzoyl)-N-methyl-L-4-nitrophenylalanyl)-4,5,6,7-tetrahydropyrazolo[4,3-c]pyridin-2-acetic acid.trifluoroacetate]
[1]; Homo sapiens, Platelet
  pIC50: 7.22

## N=C(N)c1ccc(C(=O)N[C@@H](Cc2ccc(OCc3ccccc3)cc2)C(=O)N2CCc3nn(CC(=O)O)cc3C2)cc1 [Example I-138, 5-[N-(4-amidinobenzoyl)-L-O-benzyltyrosyl)-4,5,6,7-tetrahydropyrazolo[4,3-c]pyridin-2-acetic acid.trifluoroacetate]
[1]; Homo sapiens, Platelet
  pIC50: 7.22

## Arg-Gly-Asp-Ser (RGDS; printed: Arg-Gly-Asp-Ser) [peptide derivative such as Arg-Gly-Asp-Ser (hereinafter abbreviated to as RGDS)]
[4]
  platelet aggregation inhibiting action: platelet aggregation inhibiting action
[1]
  pIC50: 5.40
[5]
  antagonistic action against a fibrinogen receptor: antagonistic action against a fibrinogen receptor
